We go through four compounds from patent US20110039906A1, “ANTIBACTERIAL COMBINATION THERAPY” (priority 2007, published 2011).

≈ marks a conversion by molar mass, not a printed value. Like-named read-outs stand apart in the source and are kept apart here.

The subject of one assay is MRSA. The note with it: literature evidence (Taylor et al., 1987); cited from earlier work.
The next assay concerns USA/VISA 5836 (VISA). Put plainly: MIC by broth microdilution (experiment B). It counts as cell-based. The note with it: Staphylococcus aureus, combination 1:1, value = mg/L total drug.
In the next assay the test system is VISA 3900 UK (VISA). Kind of assay: MIC by broth microdilution (experiment B). It counts as cell-based. The settings on record: Staphylococcus aureus, combination 1:1, value = mg/L total drug.
The subject of a further assay is S. epidermidis 1228. Put plainly: MIC by broth microdilution (experiment B). The format is cell-based. The note with it: Staphylococcus epidermidis, combination 1:1, value = mg/L total drug. (In general: In broth dilution the organism is exposed to a series of concentrations in liquid medium.)
The test system of assay [1] is 25 different MRSA isolates and 5 VRE isolates. Kind of assay: Pooled MIC testing (MIC50, MIC90, range). It counts as cell-based. The note with it: 25 MRSA isolates and 5 VRE isolates. An excerpt: The MIC50 is the minimum inhibitory concentration required to inhibit the growth of 50% of the strains tested, and the MIC90, the concentration required to inhibit the growth of 90% of the strains tested.

Another assay concerns Mu50exJapan (VISA). Kind of assay: MIC by broth microdilution (experiment B). The settings on record: Staphylococcus aureus, combination 1:1, value = mg/L total drug. It counts as cell-based.
The test system of another assay is USA/VISA) 5827 (VISA. Put plainly: MIC by broth microdilution (experiment B). The format is cell-based. The settings on record: Staphylococcus aureus, combination 1:1, value = mg/L total drug.

Method for Mu50exJapan (VISA): (§1) Minimum inhibitory concentrations (MICs) of a range of clinical and control bacterial organisms were measured according to BSAC (British Society for Antimicrobial Chemotherapy) guidelines (Andrews 2001), for single agents and combinations of agents, described briefly as follows. MICs were measured by agar dilution (Experiment A) and by broth microdilution (experiment B).
(§2) Stock solutions were prepared at concentrations of 1000 mg/L and 100 mg/L. The appropriate amounts of each stock solution were added to separate Petri dishes give a range of final concentrations (after the addition of 20 mL molten agar): from 0.12 to 32 mg/L. In experiment A, a 1:1 ratio of each agent was added to the appropriate Petri dish so that a 2 mg/L plate contained 2 mg/L of each agent. Volumes (20 mL) of cooled molten IST agar (oxoid) was added to each Petri dish and mixed by swirling. After drying, the plates were stored at 4° C. and protected from light. Plates were used on the day of preparation.
(§3) The test organisms were grown overnight in 5 mL IST broth. […] For the broth microdilution, each well of a microtitre plate was inoculated with diluted overnight culture to give a final inoculum of 5×10^5 cfu/mL. […]
(§4) The MIC is the minimum amount of an antibiotic at which there is no visible growth of bacteria. Tiny single colonies or faint hazes were not counted as growth.
Method for S. epidermidis 1228: as §1, §2, §3, §4
Method for USA/VISA 5836 (VISA): as §1, §2, §3, §4
Method for USA/VISA) 5827 (VISA: as §1, §2, §3, §4
Method for VISA 3900 UK (VISA): as §1, §2, §3, §4

`CCN(CC)C(=S)S` [DDTC, diethyldithiocarbamate]: the “antibacterial activity against MRSA” value with MRSA is reported as “some antibacterial activity”.

As to `CCN(CC)C(=S)SSC(=S)N(CC)CC` [Disulfiram (ethanol), disulfiram], in the assay with MRSA, the “antibacterial activity against MRSA” value was “some antibacterial activity”.

For `Clc1ccc(COC(Cn2ccnc2)c2ccc(Cl)cc2Cl)c(Cl)c1` (stereo not drawn) [Miconazole, 1-[2-(2,4-Dichlorophenyl)-2-[(2,4-dichlorophenyl)methoxy]ethyl]-1H-imidazole], the MIC (usually the least concentration at which growth counts as inhibited) with USA/VISA 5836 (VISA) was determined as 8 µg/mL; in the assay on VISA 3900 UK (VISA), 2 µg/mL; in the assay with S. epidermidis 1228 it was 2 µg/mL; in assay [1] (read-out: highest MIC), 8 µg/mL (≈ 19.2 µM); in assay [1] (read-out: lowest MIC), 0.5 µg/mL (≈ 1.2 µM). Further, the “Range of MICs” value in assay [1] was 0.5 to 8 mg/L. Besides, the MIC50 (in general, the lowest concentration that inhibits either 50% of growth or 50% of the strains tested, depending on the study) in assay [1] (concentration inhibiting growth of 50% of strains) is 2 µg/mL (≈ 4.81 µM). The MIC90 (in general, an inhibitory concentration at the 90% level, which refers to growth in some studies and to a panel of isolates in others) in assay [1] (concentration inhibiting growth of 90% of strains) was determined as 2 µg/mL (≈ 4.81 µM).

Take `Clc1ccc(COC(Cn2ccnc2)c2ccc(Cl)cc2Cl)cc1` (stereo not drawn) [Econazole, 1-[2-[(4-Chlorphenyl)methoxy]-2-(2,4-dichlorophenyl)ethyl]-1H-imidazole]: the MIC in the assay on USA/VISA 5836 (VISA) turned out to be 8 µg/mL; in the assay with Mu50exJapan (VISA), 8 µg/mL; in the assay with VISA 3900 UK (VISA), 8 µg/mL; in the assay with S. epidermidis 1228 it was 2 µg/mL; in the assay with USA/VISA) 5827 (VISA, 4 µg/mL.
